Assay results as given in patent US20100119599A1 (ARCHER PHARMACEUTICALS, INC., priority 2006, published 2010).

Columns and labels:
[1] = tested on: Aβ1-40; experiment: Measurement of Aβ1-40 in culture medium of 7W WT APP751 CHO cells by ELISA; assay type: cell-based, Chinese hamster; conditions: for Aβ1-40 (% of control): CHO cells that overexpress APP751, zero = below the detection limit of the assay; for activity at 5 µM: Cricetulus griseus, Table 1, 5 μM test compound, CHO cells stably transfected with human APP751, culture medium, ELISA, control DMSO, 0 = no detectable amount
[2] = tested on: Aβ1-42; experiment: Measurement of Aβ1-42 in culture medium of 7W WT APP751 CHO cells by ELISA; assay type: cell-based, Chinese hamster; conditions: for Aβ1-42 (% of control): CHO cells that overexpress APP751, zero = below the detection limit of the assay; for activity at 5 µM: Cricetulus griseus, Table 1, 5 μM test compound, CHO cells stably transfected with human APP751, culture medium, ELISA, control DMSO, 0 = no detectable amount, read-out: Aβ1-42 (% of control)
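Note: 5 µM test compound but RI-coded compounds at 10 µM for 24 hours.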

Row | SMILES | Aβ1-40 (% of control) [1] | Aβ1-42 (% of control) [2] | activity at 5 µM [1] | activity at 5 µM [2]
1 | Cc1ccc(/C=c2/sc3n(c2=O)C(N)=C(C#N)C(c2ccc(C)cc2)C=3C#N)cc1 (stereo not shown) [ST215709, 5-amino-7-(4-methylphenyl)-2-[(4-methylphenyl)methylene]-3-oxo-4,7-dihydro-1,3-thiazolidino[3,2-a]pyridine-6,8-dicarbonitrile] | 55.91 % of control | 78.43 % of control |  | 
2 | CCCCCOC(=O)C1=C(C)NC2=C(C(=O)CC(C)(C)C2)C1c1ccc([N+](=O)[O-])cc1 (stereo not shown) [ST216093, pentyl 2,7,7-trimethyl-4-(4-nitrophenyl)-5-oxo-1,4,6,7,8-pentahydroquinoline-3-carboxylate] |  |  | 0% | 0%
3 | COc1cccc(NC(=O)CSC2=C(C#N)C(c3ccsc3)C(C(=O)Nc3ccccc3)=C(C)N2)c1 (stereo not shown) [RI_51] | 53.5 % of control | 58 % of control |  | 
4 | CC1=C(C(=O)OC2CCCCCC2)C(c2cccc(Br)c2)C2=C(CC(C)(C)CC2=O)N1 (stereo not shown) [ST024487, cycloheptyl 4-(3-bromophenyl)-2,7,7-trimethyl-5-oxo-1,4,6,7,8-pentahydroquinoline-3-carboxylate] |  |  | 5.07% | 3.77%
5 | CCOC(=O)C1=CN(c2ccc(F)cc2)C=C(C(=O)OCC)C1c1ccccc1OCC [ST052316, ethyl 5-(ethoxycarbonyl)-4-(2-ethoxyphenyl)-1-(4-fluorophenyl)-1,4-dihydropyridine-3-carboxylate] | 68.09 % of control | 40.03 % of control |  | 
6 | CCCOC(=O)C1=C(C)NC2=C(C(=O)CC(C)(C)C2)C1c1cccc(Cl)c1Cl (stereo not shown) [ST013206, propyl 4-(2,3-dichiorophenyl)-2,7,7-trimethyl-5-oxo-1,4,6,7,8-pentahydroquinoline-3-carboxylate] |  |  | 0% | 62.5%
7 | CCCCOC(=O)C1=C(C)NC2=C(C(=O)CC(C)(C)C2)C1c1ccccc1[N+](=O)[O-] (stereo not shown) [ST215464, butyl 2,7,7-trimethyl-4-(2-nitrophenyl)-5-oxo-1,4,6,7,8-pentahydroquinoline-3-carboxylate] |  |  | 62.7% | 90.7%
8 | CC1=C(C(=O)Nc2ccccc2)C(c2cccs2)C(C#N)=C(SCC(=O)Nc2cccc(Cl)c2C)N1 (stereo not shown) [RI_38] | 62.5 % of control | 103.4 % of control |  | 
9 | CC1=C(C(=O)OCCOc2ccccc2)C(c2ccccc2Cl)C2=C(CC(C)(C)CC2=O)N1 (stereo not shown) [ST015096, 2-phenoxyethyl 4-(2-chlorophenyl)-2,7,7-trimethyl-5-oxo-1,4,6,7,8-pentahydroquinoline-3-carboxylate] |  |  | 28.1% | 80%
10 | CC1=C(C(=O)OC2CCCCC2)C(c2ccc(Cl)cc2)C2=C(CC(c3ccccc3)CC2=O)N1 (stereo not shown) [ST013352, cyclohexyl 4-(4-chlorophenyl)-2-methyl-5-oxo-7-phenyl-1,4,6,7,8-pentahydroquinoline-3-carboxylate] |  |  | 22.4% | 84%
11 | CCOC(=O)C1=C(C)NC2=C(C(=O)CCC2)C1c1cccnc1 (stereo not shown) [ST013070, ethyl 2-methyl-5-oxo-4-(3-pyridyl)-1,4,6,7,8-pentahydroquinoline-3-carboxylate] |  |  | 34% | 82.4%
12 | N#CC1=C(N)n2c(s/c(=C\c3cccs3)c2=O)=C(C#N)C1c1cccs1 (stereo not shown) [RI_98] | 74.6 % of control | 78.2 % of control |  | 
13 | COc1ccccc1C1C(C(=O)OC2CCCC2)=C(C)NC2=C1C(=O)CC(c1ccccc1)C2 (stereo not shown) [ST017176, cyclopentyl 4-(2-methoxyphenyl)-2-methyl-5-oxo-7-phenyl-1,4,6,7,8-pentahydroquinoline-3-carboxylate] |  |  | 34.2% | 49.8%
14 | CCOCCOC(=O)C1=C(C)NC2=C(C(=O)CCC2)C1c1ccc(OC)c(OC)c1 (stereo not shown) [ST013341, 2-ethoxyethyl 4-(3,4-dimethoxyphenyl)-2-methyl-5-oxo-1,4,6,7,8-pentahydroquinoline-3-carboxylate] |  |  | 73% | 73.9%
15 | COc1cccc(C2C(C(=O)OC(C)C)=C(C)NC3=C2C(=O)CC(c2ccc(Cl)cc2)C3)c1OC (stereo not shown) [ST017324, methylethyl 4-(2,3-dimethoxyphenyl)-7-(4-chlorophenyl)-2-methyl-5-oxo-1,4,6,7,8-pentahydroquinoline-3-carboxylate] |  |  | 30.2% | 99.2%
16 | COc1ccc(C2C(C(=O)OC(C)C)=C(C)NC3=C2C(=O)CC(C)(C)C3)cc1Br (stereo not shown) [ST215449, methylethyl 4-(3-bromo-4-methoxyphenyl)-2,7,7-trimethyl-5-oxo-1,4,6,7,8-pentahydroquinoline-3-carboxylate] |  |  | 24.5% | 25.7%
17 | CCN(CC)c1ccc(C2C(C(=O)OC(C)C)=C(C)NC3=C2C(=O)CC(c2ccccc2)C3)cc1 (stereo not shown) [ST014875, methylethyl 4-[4-(diethylamino)phenyl]-2-methyl-5-oxo-7-phenyl-1,4,6,7,8-pentahydroquinoline-3-carboxylate] |  |  | 54.2% | 95.7%
18 | CCCCOC(=O)C1=C(C)NC2=C(C(=O)CCC2)C1c1ccccc1OC (stereo not shown) [ST013324, butyl 4-(2-methoxyphenyl)-2-methyl-5-oxo-1,4,6,7,8-pentahydroquinoline-3-carboxylate] |  |  | 54.3% | 93.7%

Row | SMILES | Aβ1-40 (% of control) [1] | Aβ1-42 (% of control) [2] | activity at 5 µM [1] | activity at 5 µM [2]
19 | CC1=C(C(=O)Nc2ccc(Cl)cc2)C(c2ccccc2C)C(C#N)=C(SCC(=O)Nc2cccc(C)c2)N1 (stereo not shown) [RI_31] | 53.9 % of control | 73.3 % of control |  | 
20 | COc1ccc(Br)cc1C1C(C(=O)OCC2CCCO2)=C(C)NC2=C1C(=O)CCC2 (stereo not shown) [ST052224, oxolan-2-ylmethyl 4-(5-bromo-2-methoxyphenyl)-2-methyl-5-oxo-1,4,6,7,8-pentahydroquinoline-3-carboxylate] |  |  | 76.9% | 68.1%
21 | CC1=C(C(=O)Nc2ccc(Cl)cc2)C(c2ccccc2)C(C#N)=C(SCC(=O)Nc2ccccc2C)N1 (stereo not shown) [RI_40] | 25.7 % of control | 43.2 % of control |  | 
22 | CC1=C(C(=O)Nc2ccccc2)C(c2cccs2)C(C#N)=C(SCC(=O)Nc2ccc(C)c(Cl)c2)N1 (stereo not shown) [ST050842, N-(3-chloro-4-methylphenyl)-2-[3-cyano-6-methyl-5-(N-phenylcarbamoyl)-4-(2-thienyl)(2-1,4-dihydropyridylthio)]acetamide] | 37.46 % of control | 52.06 % of control |  | 
23 | CC1=C(C(=O)OCCOc2ccccc2)C(c2ccc(Br)cc2)C2=C(CCCC2=O)N1 (stereo not shown) [ST014890, 2-phenoxyethyl 4-(4-bromophenyl)-2-methyl-5-oxo-1,4,6,7,8-pentahydroquinoline-3-carboxylate] |  |  | 13.2% | 67.5%
24 | CC1=C(C(=O)Nc2ccc(Cl)cc2)C(c2ccccc2)c2c(sc(C(=O)Nc3cccc(C)c3)c2N)N1 (stereo not shown) [RI_43] | 61.2 % of control | 75.1 % of control |  | 
25 | CCc1cccc(NC(=O)CSC2=C(C#N)C(c3csc4ccccc34)C(C(=O)Nc3ccccc3)=C(C)N2)c1 (stereo not shown) [RI_92] | 60.7 % of control | 47.3 % of control |  | 
26 | CC1=C(C(=O)OC2CCCC2)C(c2ccc(F)c(F)c2)C2=C(CCCC2=O)N1 (stereo not shown) [ST052267, cyclopentyl 4-(3,4-difluorophenyl)-2-methyl-5-oxo-1,4,6,7,8-pentahydroquinoline-3-carboxylate] |  |  | 50.7% | 52.8%
27 | CC1=C(C(=O)Nc2ccccc2)C(c2cccs2)C(C#N)=C(SCC(=O)Nc2cccc(Cl)c2)N1 (stereo not shown) [RI_69] | 89.1 % of control | 69.8 % of control |  | 
28 | COc1ccc(C2C(C(=O)OC3CCCC3)=C(C)NC3=C2C(=O)CC(C)(C)C3)c(OC)c1OC (stereo not shown) [ST013328, cyclopentyl 2,7,7-trimethyl-5-oxo-4-(2,3,4-trimethoxyphenyl)-1,4,6,7,8-pentahydroquinoline-3-carboxylate] |  |  | 43.1% | 93.4%
29 | CCCCCOC(=O)C1=C(C)NC2=C(C(=O)CC(C)(C)C2)C1c1ccc(OC)cc1 (stereo not shown) [ST216606, pentyl 4-(4-methoxyphenyl)-2,7,7-trimethyl-5-oxo-1,4,6,7,8-pentahydroquinoline-3-carboxylate] |  |  | 1.4% | 9.56%
30 | CSc1ccc(C2C(C(=O)OCCOc3ccccc3)=C(C)NC3=C2C(=O)CCC3)cc1 (stereo not shown) [ST015072, 2-phenoxyethyl 2-methyl-4-(4-methylthiophenyl)-5-oxo-1,4,6,7,8-pentahydroquinoline-3-carboxylate] |  |  | 19.3% | 59.4%
31 | CCOC(=O)C1=C(C)NC2=C(C(=O)CC(c3ccccc3)C2)C1c1cc(OC)ccc1OC (stereo not shown) [ST015254, ethyl 4-(2,5-dimethoxyphenyl)-2-methyl-5-oxo-7-phenyl-1,4,6,7,8-pentahydroquinoline-3-carboxylate] |  |  | 46.9% | 33.8%
32 | COC(=O)C1=C(C)NC2=C(C(=O)CC(c3ccc(Cl)cc3)C2)C1c1ccccc1F (stereo not shown) [ST015216, methyl 7-(4-chlorophenyl)-4-(2-fluorophenyl)-2-methyl-5-oxo-1,4,6,7,8-pentahydroquinoline-3-carboxylate] |  |  | 68.4% | 93.2%
33 | CC1=C(C(=O)OCc2ccccc2)C(c2ccccc2Br)C2=C(CC(C)(C)CC2=O)N1 (stereo not shown) [ST216854, phenylmethyl 4-(2-bromophenyl)-2,7,7-trimethyl-5-oxo-1,4,6,7,8-pentahydroquinoline-3-carboxylate] |  |  | 29.4% | 60%
34 | CC1=C(C(=O)Nc2ccccc2)C(c2ccsc2)C(C#N)=C(SCC(=O)Nc2cccc(Cl)c2)N1 (stereo not shown) [RI_70] | 74.1 % of control | 58.2 % of control |  | 
35 | CCc1cccc(NC(=O)CSC2=C(C#N)C(c3ccc(C)s3)C(C(=O)Nc3ccccc3)=C(C)N2)c1 (stereo not shown) [RI_78] | 77.32 % of control | 88.1 % of control |  | 
